Targets include Carbonic anhydrase 1 (Homo sapiens, UniProt P00915); Carbonic anhydrase 3 (Homo sapiens, UniProt P07451); Carbonic anhydrase 4 (Homo sapiens, UniProt P22748); Carbonic anhydrase 6 (Homo sapiens, UniProt P23280); Carbonic anhydrase 9 (Homo sapiens, UniProt Q16790); Carbonic anhydrase 12 (Homo sapiens, UniProt O43570); Carbonic anhydrase 13 (Mus musculus, UniProt Q9D6N1); Carbonic anhydrase 14 (Homo sapiens, UniProt Q9ULX7).

For assay [1], the target named is Carbonic anhydrase 5B, mitochondrial (Homo sapiens, UniProt Q9Y2D0).

pKi: −log10 of the molar value.

Chain of Carbonic anhydrase 4 (P22748 whole entry): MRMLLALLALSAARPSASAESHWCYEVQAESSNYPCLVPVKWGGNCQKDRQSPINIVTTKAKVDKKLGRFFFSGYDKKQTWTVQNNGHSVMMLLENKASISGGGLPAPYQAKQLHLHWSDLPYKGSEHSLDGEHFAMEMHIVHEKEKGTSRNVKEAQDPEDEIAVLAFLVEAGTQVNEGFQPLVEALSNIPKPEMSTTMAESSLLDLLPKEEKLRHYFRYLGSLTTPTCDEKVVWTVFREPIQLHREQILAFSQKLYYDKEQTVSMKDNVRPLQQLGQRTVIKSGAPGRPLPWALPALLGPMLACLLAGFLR
Chain of Carbonic anhydrase 12 (O43570 whole entry): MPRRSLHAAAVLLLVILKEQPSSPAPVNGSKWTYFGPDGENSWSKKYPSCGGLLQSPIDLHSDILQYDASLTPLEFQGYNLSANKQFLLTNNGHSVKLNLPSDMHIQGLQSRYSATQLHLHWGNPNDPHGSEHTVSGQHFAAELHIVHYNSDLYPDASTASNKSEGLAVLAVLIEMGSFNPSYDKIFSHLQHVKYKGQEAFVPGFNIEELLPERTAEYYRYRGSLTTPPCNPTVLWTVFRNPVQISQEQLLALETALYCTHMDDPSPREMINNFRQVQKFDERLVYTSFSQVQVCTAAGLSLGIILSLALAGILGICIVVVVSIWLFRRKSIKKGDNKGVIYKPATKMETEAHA
Chain of Carbonic anhydrase 14 (Q9ULX7 whole entry): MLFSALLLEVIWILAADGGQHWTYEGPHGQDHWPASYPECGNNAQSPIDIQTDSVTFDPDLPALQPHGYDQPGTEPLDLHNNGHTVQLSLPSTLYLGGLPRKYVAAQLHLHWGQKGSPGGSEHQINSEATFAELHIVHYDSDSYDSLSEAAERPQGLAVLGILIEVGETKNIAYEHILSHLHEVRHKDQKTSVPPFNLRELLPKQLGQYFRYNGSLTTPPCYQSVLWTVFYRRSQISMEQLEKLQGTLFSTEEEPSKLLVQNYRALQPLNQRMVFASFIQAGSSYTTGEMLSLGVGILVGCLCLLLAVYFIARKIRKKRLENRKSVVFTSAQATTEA
Chain of Carbonic anhydrase 3 (P07451 whole entry): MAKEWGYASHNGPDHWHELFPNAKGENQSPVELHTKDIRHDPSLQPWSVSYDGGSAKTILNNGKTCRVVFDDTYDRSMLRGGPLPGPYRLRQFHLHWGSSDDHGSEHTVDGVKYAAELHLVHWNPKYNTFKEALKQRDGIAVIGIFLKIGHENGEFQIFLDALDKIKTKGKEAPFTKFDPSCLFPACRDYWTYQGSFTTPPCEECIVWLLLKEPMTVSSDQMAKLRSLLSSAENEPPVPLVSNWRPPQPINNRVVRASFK
Chain of Carbonic anhydrase 1 (P00915 whole entry): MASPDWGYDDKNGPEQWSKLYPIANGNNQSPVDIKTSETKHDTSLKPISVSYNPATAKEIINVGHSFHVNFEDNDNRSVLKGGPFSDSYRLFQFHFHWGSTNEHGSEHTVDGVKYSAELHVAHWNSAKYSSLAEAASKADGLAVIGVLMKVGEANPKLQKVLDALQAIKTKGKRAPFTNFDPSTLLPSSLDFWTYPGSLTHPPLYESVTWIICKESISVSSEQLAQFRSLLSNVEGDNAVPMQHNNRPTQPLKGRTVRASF
Chain of Carbonic anhydrase 13 (Q9D6N1 whole entry): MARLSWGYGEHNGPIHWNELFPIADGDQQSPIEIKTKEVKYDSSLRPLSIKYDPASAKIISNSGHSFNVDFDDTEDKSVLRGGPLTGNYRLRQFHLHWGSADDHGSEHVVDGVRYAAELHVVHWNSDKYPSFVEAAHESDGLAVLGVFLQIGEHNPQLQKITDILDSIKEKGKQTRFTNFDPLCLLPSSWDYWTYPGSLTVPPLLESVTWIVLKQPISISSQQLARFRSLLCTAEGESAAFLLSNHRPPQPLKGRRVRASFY
Chain of Carbonic anhydrase 5B, mitochondrial (Q9Y2D0 whole entry): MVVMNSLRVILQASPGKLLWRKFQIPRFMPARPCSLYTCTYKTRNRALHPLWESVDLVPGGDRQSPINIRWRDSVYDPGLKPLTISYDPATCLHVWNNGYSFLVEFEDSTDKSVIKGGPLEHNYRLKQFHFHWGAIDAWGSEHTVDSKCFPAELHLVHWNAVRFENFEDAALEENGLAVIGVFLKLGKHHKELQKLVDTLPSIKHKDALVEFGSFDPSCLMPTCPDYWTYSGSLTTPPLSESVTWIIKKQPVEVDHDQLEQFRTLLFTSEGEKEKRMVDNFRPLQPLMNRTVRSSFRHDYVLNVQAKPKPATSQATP
Chain of Carbonic anhydrase 6 (P23280 whole entry): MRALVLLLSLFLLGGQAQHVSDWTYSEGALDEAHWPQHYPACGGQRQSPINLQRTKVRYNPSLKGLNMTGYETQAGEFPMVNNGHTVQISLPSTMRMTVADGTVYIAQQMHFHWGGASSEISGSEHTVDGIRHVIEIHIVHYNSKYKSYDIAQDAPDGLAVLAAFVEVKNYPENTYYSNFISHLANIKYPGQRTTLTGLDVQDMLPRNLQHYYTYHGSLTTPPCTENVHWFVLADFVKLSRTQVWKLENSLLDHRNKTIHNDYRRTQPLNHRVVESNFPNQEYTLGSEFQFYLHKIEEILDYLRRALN

Consider `NS(=O)(=O)c1ccc2[nH]c(-c3cscn3)nc2c1`, for which the pKi (in general, the negative decadic logarithm of the Ki, by convention in mol/L) is 7.29 at Carbonic anhydrase 1; 4.46 on Carbonic anhydrase 3; 7.31 on Carbonic anhydrase 4; 7.39 in assay [1]; 7.60 at Carbonic anhydrase 6; 8.19 at Carbonic anhydrase 9. Besides, the negative logarithm of the Ki (pKi) on Carbonic anhydrase 12 is 7.75; at Carbonic anhydrase 13 it was 5.31; at Carbonic anhydrase 14, 6.37.

(Values after ChEMBL document CHEMBL1152885 (Bioorg Med Chem Lett, 2009).)
